What was measured:
[1] = test system: Jurkat T cells; experiment: MTT assessment of Jurkat T cell survival; format: cell-based, human; settings: 5 nmol/L, 72 h
Experimental: Preparation of Jurkat T cells: Jurkat T cells were cultured in Roswell Park Memorial Institute (RPMI) 1640 Medium (Thermo Fisher Scientific, Cat. No. 21875034) containing FBS (10%, Thermo Fisher Scientific, Cat. No. A4766801), Penicillin/streptomycin (10,000 U/ml; Thermo Fisher Scientific, Cat. No. 15140-122), and Ultraglutamine (2 mmol/L, Lonza, Cat. No. BE17-605E/U1). Jurkat T cells were kept in 20% O2, 5% CO2 and at 37 degrees Celsius. Jurkat T cells were treated for 72 h with PBS or with docetaxel (docetaxel 5 nmol/L). Subsequently, Jurkat T cells were collected and washed 3 times in PBS to remove residual chemotherapy.
About 100,000 T cells were seeded per well in a 96-well plate and treated with
increasing doses of docetaxel, paclitaxel, or carboplatin for 72 h. Next, T cells were incubated with Thiazolyl Blue Tetrazolium Bromide (0.5 mg/ml, Sigma Aldrich, Cat. No. 298-93-1) for 3 hr in the dark at 37 degrees Celsius. Subsequently, T cells were incubated for 16 h in the dark in a lysis buffer (40% dimerhylofrmamide, 0.55 mol/L sodium dodecyl sulfate, 2% acetic acid, 8.4 mmol/L HCl in MilliQ water). Plates were read with a 565 nm wavelength.

[2] = test system: MMTV-PyMT organoids expressing OVA; experiment: Co-culture of OT I T cells with MMTV-PyMT organoids expressing OVA (cleaved-caspase 3); format: cell-based, mouse; settings: OT I T cells pre-treated with docetaxel vs control
Experimental: Experiments were approved by the Animal Welfare Committee of the Netherlands Cancer Institute and were performed in accordance with national guidelines. Mice were housed in individually ventilated cage (IVC) systems under specific pathogen-free conditions and received chow and water ad libitum. FVB/NRj females (Janvier), C57BL/6-Tg (TcraTcrb) 1100Mjb/J females (OT I mice, Jackson laboratory), and ROSA26mTmG FVB females (NKI) were used at 8-20 weeks of age at the time of fat pad injection of tumor organoids or spleen isolation.
For T cells isolated from mouse mammary tumors, T cells were directly co-cultured with tumor organoids after FACS isolation. For T cells isolated from the spleen, T cells were treated for 72 h with PBS or with docetaxel (docetaxel 10 nmol/L), in the presence or absence of an LCKi (10 μmol/L, Merck Millipore, Cat. No. 213743-31-8). To evaluate the docetaxel-specificity of our observations, T cells were treated with paclitaxel 10 nmol/L or carboplatin 50 μmol/L for 72 h. Subsequently, T cells were collected and washed 3 times in PBS to remove residual chemotherapy or LCKi.
Organoids were fixed in 4% paraformaldehyde in PBS for 20 min at room temperature, followed by permeabilization in 0.2% TritonX-100 in PBS for 15 min at room temperature. […]

## CC(=O)O[C@@]12CO[C@@H]1C[C@H](O)[C@@]1(C)C(=O)[C@H](O)C3=C(C)[C@@H](OC(=O)[C@H](O)[C@@H](NC(=O)OC(C)(C)C)c4ccccc4)C[C@@](O)([C@@H](OC(=O)c4ccccc4)[C@H]21)C3(C)C [docetaxel]
[1]
  Jurkat T cells survival (MTT): did not significantly reduce Jurkat T cells survival
[2]
  cytotoxicity of OT I T cells (apoptosis in OVA+ organoids): further enhanced

From patent US20250387481A1, “PRE-TREATED T CELLS FOR USE AS A MEDICAMENT” (STICHTING HET NEDERLANDS KANKER INSTITUUT-ANTONI VAN …, priority 2022, published 2025)
